Results published in patent publication US9346797B1, “2-amino 6-(difluoromethyl)-5,5-difluoro-6-phenyl-3,4,5,6-tetrahydropyridines as BACE1 inhibitors” (H. Lundbeck A/S, priority 2014, dated 2016).
Read-outs that look alike come from different tables or passages of the source.

What was measured:
P-gp (MDR1) = test: MDCK-MDR1 assay (permeability/efflux); type: in vitro ADME; conditions: dog, Papp BA/Papp AB, 60-minute incubation, Pgp substrate when ≧2
Experimental: The permeability of the test compounds was assessed in MDCK-MDR1 cells that were cultured to confluency (4-6 days) in a 96 transwell plate. Test compounds were diluted with the transport buffer (HBSS+1% BSA) to a concentration of 0.5 μM and applied to the apical or basolateral side of the cell monolayer. Permeation of the test compounds from A to B direction or B to A direction was determined in triplicate over a 60-minute incubation time at 37° C. and 5% CO2 with a relative humidity of 95%. Test compounds were quantified by LC-MS/MS analysis based on the peaks area ratios of analyte/IS in both the receiver and donor wells of the transwell plate.
The apparent permeability coefficient Papp (cm/s) was calculated using the equation: Papp=(dCr/dt)×Vr/(A×C0)
Where dCr/dt is the cumulative concentration of compound in the receiver chamber as a function of time (μM/s); Vr is the solution volume in the receiver chamber (0.05 mL on the apical side; 0.25 mL on the basolateral side); A is the surface area for the transport, i.e. 0.0804 cm^2 for the area of the monolayer; CO is the initial concentration in the donor chamber (μM).
Compounds are classified Pgp substrates when efflux ratio (Papp BA/Papp AB) is ≧2.

[1] = Bioanalysis of brain and plasma samples (exposure, UPLC-MS/MS); type: in vivo; conditions: male, Sprague Dawley, po, rat, 3 hours post dose; for Kp at 3 h: brain/plasma, read-out: Brain/Plasma ratio; for concentration at 3 h: read-out: Exp
Experimental: Young adult Male Sprague Dawley rats of approximately 250 g weight were purchased from Charles River and received 0-30 mg/kg of vehicle (10% HP betaCD+1M MeSO4, pH 2.5) or test compounds (dissolved in vehicle) only by oral gavage (p.o). The compounds are dosed at a volume of 5 ml/kg. Cohorts of 5-10 animals were established for each treatment condition.
At T=180 minutes after initial dosing the animals were stunned and decapitated with a guillotine. Trunk-blood was sampled in EDTA coated tubes after decapitation of the animal. The blood was centrifuged at 2200 G at 4° C. for 15 minutes and the plasma was collected and frozen at −80° C. The blood was aliquoted for Aβ ELISA and DMPK analysis Immediately following sacrifice, the brain was extracted and split into 2 halves. The right hemibrains were snap frozen on dry ice and stored at −80° C. The left half was dissected; with the front forebrain taken for Aβ ELISA and the remainder used for DMPK analysis. These samples were also snap frozen on dry ice and stored at −80° C. until use for analysis.
TC was determined in plasma and brain homogenate using UltraPerformance LC® (UPLC®) chromatography followed by tandem-MS (MS/MS) detection.
Brain homogenate was prepared by homogenizing the brain 1:4 (v/v) with water:2-propanol:DMSO (50:30:20 v/v/v) followed by centrifugation and collection of the supernatant. Calibration standards and QC samples were prepared using a Hamilton robot. 150 μL of ISTD in acetonitrile (1 ng/mL ISTD) was added to 25 μL of calibration standards, QC samples and test samples (plasma and brain homogenate) using a Biomek robot. After centrifugation (6200 g, 4° C., 20 min) 100 μL supernatant from each sample was transferred to a new plate and mixed with 100 μL water with 0.1% formic acid using a Biomek robot (method file InVivo transfer). After a quick centrifugation (6200 g, 4° C., 5 min) the samples were placed in the auto-sampler.
MS/MS detection was done with an Applied Biosystems Sciex API 4000 instrument in positive-ion electrospray ionisation mode. TC and ISTD were detected at a parent>daughter mass to charge ratio (m/z). Nitrogen was used for the nebulizer and collision gases. The peak area correlated linearly with the plasma and brain concentration of the analytes in the range of 1.00-1000 ng/mL plasma and 5.00-5000 ng/g brain (corrected for dilution). If the plasma/brain sample drug concentration was above 1000 ng/mL or 5000 ng/g, the sample was diluted appropriately in blank plasma/blank brain homogenate before analysis. […]

human BACE1 = human BACE1 (Homo sapiens (Human), UniProt P56817); test: BACE1 binding assay (SPA-based radioligand binding); conditions: pH 4.5, Ki calculated from IC50
Sequence of human BACE1 (P56817 46-501): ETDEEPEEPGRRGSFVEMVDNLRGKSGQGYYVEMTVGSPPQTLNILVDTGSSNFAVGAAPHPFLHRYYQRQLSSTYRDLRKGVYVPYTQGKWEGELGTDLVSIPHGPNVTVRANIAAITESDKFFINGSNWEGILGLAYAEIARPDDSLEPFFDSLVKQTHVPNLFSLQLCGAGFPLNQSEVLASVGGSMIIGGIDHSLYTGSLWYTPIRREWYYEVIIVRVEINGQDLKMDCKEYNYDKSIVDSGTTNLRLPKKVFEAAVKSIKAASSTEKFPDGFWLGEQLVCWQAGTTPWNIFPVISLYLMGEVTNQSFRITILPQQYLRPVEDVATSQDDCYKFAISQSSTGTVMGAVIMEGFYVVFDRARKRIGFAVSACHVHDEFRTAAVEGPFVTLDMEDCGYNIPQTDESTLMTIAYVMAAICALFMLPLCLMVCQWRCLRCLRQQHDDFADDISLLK
Experimental: The binding assay was performed as SPA-based assay using a biotinylated form of human BACE1 recombinantly expressed and subsequently purified from Freestyle HEK293 cells. The binding assay was run in a 50 mM sodium acetate buffer, pH 4.5 containing 50 mM NaCl and 0.03% Tween-20 in white clear bottom 384 plates (Corning #3653). 10 nM (final concentration) radioligand ([^3H]—N-((1S,2R)-1-benzyl-3-cyclopropylamino-2-hydroxy-propyl)-5-(methanesulfonyl-methyl-amino)-N—((R)-1-phenyl-ethyl)-isophthalamide) (TRQ11569 purchased from GE Healthcare) was mixed with test compound at a given concentration, 6 nM (final concentration) human BACE1 and 25 μg Streptavidin coated PVT core SPA beads (RPNQ0007, GE Healthcare Life Sciences) in a total volume of 40 μl. Several concentrations of each test compound were tested in the assay for IC50 determination. The plates were incubated for one hour at room temperature and counted in a Wallac Trilux counter. Total and non-specific binding were determined using buffer and 1 μM (final concentration) of the high affinity BACE1 reference inhibitor (S)-6-[3-chloro-5-(5-prop-1-ynyl-pyridin-3-yl)-thiophen-2-yl]-2-imino-3,6-dimethyl-tetrahydro-pyrimidin-4-one, respectively. For each test compound, a IC50 value (the concentration mediating 50% inhibition of the specific binding of the radioligand) was determined from concentration-response curve and used to calculate the Ki from the equation Ki=IC50/(1+L/Kd), where L and Kd are the final concentration of the radioligand used in the assay and the dissociation constant of the radioligand, respectively. The Kd of the radioligand was determined from saturation binding experiments.

efflux ratio at 60 min, 0.5 μM (P-gp (MDR1)) | Kp at 3 h ([1]; 10 mg/kg p.o.) | Kp at 3 h ([1]; 30 mg/kg p.o.) | concentration at 3 h ([1]; brain, 10 mg/kg p.o.) | concentration at 3 h ([1]; brain, 30 mg/kg p.o.) | concentration at 3 h ([1]; plasma, 10 mg/kg p.o.) | concentration at 3 h ([1]; plasma, 30 mg/kg p.o.) | Ki (human BACE1) | SMILES
1.22 | 0.3 | 0.32 | 511 ng/g | 2280 ng/g | 1680 ng/g | 7060 ng/g | 8.5 nM | COc1cnc(C(=O)Nc2ccc(F)c([C@@]3(C(F)F)N=C(N)CCC3(F)F)c2)cn1 [Compound 3, (S)—N-(3-(6-amino-2-(difluoromethyl)-3,3-difluoro-2,3,4,5-tetrahydropyridin-2-yl)-4-fluorophenyl)-5-methoxypyrazine-2-carboxamide]
0.99 | 0.28 | 0.29 | 187 ng/g | 959 ng/g | 660 ng/g | 3350 ng/g | 6.7 nM | COc1ccc(C(=O)Nc2ccc(F)c([C@@]3(C(F)F)N=C(N)CCC3(F)F)c2)nc1 [Compound 5, (S)—N-(3-(6-amino-2-(difluoromethyl)-3,3-difluoro-2,3,4,5-tetrahydropyridin-2-yl)-4-fluorophenyl)-5-methoxypicolinamide]
